{
  "source": "paper PMC11001683",
  "about": "(European Journal of Clinical Pharmacology, 2024)",
  "key": {"[1]": {"settings": "mice; cited from earlier work"}, "[2]": {"design": "method as in PMID 37394539", "settings": "cited from earlier work"}, "[3]": {"assay": "Allometric scaling prediction of ACD855 elimination half-life in man", "design": "species or system human", "method": "(§1) The clinical efficacy, safety, and pharmacokinetics (PK) of ACD855 have been evaluated in various domestic animals for the use as a veterinary drug. […] Based on pharmacology studies in rodents and safety studies in rat and dog, the first oral dose in an initiated Phase I single ascending dose (SAD) study (EudraCT No. 2018-002320-16), in healthy volunteers was set to 1 mg. […] The study was prematurely terminated after interim PK analysis of the first cohort, and long-term follow-up of the dosed subjects was performed."}, "[4]": {"assay": "ACD855 Phase I SAD study, cohort 1, plasma pharmacokinetics", "type": "in vivo", "settings": "human, 1 mg oral", "method": "as §1"}, "[5]": {"assay": "ACD855 clinical signs in dogs", "type": "in vivo"}, "[6]": {"assay": "ACD855 mutagenic/genotoxic potential", "method": "as §1"}},
  "data": [
    {"smiles": "Cc1cc(-n2c(=O)[nH]c(=O)n(C)c2=O)ccc1Oc1ccc(S(=O)(=O)C(F)(F)F)cc1", "note": "[ACD855, Ponazuril]", "values": [
      {"measurement": "effect in preclinical in vivo cognition models", "setting": "[1]", "value": "pro-cognitive effects"},
      {"measurement": "effect in the forced swim test model", "setting": "[2]", "value": "anti-depressant-like effects"},
      {"measurement": "predicted elimination half-life in man", "setting": "[3]", "value": 4.6, "unit": "days"},
      {"measurement": "concentration at 280 days", "setting": "[4]; all subjects but one, detection limit 1 ng/mL, read-out: plasma level at 280 days", "value": "> 1", "unit": "ng/mL"},
      {"measurement": "half-life", "setting": "[4]; cohort 1, healthy volunteers, read-out: elimination half-life in plasma in humans, average (converted)", "value": 68, "unit": "days"},
      {"measurement": "notable clinical signs in dogs", "setting": "[5]", "value": "gastrointestinal disturbance"},
      {"measurement": "mutagenic or genotoxic potential", "setting": "[6]", "value": "no indication of any mutagenic or genotoxic potential"}
    ]}
  ]
}
